Measurements as given in US20210223266A1, “METHODOLOGIES AND METHODS FOR MEASURING HIGHER MOLECULAR WEIGHT TRANSTHYRETIN OR EQUIVALENTS AS A CLINICAL BIOMARKER” (TTR Therapeutics, priority 2019, published 2021).

Legend:
[1] = system: native TTR; settings: Taf Group; no Taf Group 273.8 nM, non-ATTR controls 271.5 nM; not significantly different; cited from earlier work
[2] = biological target: TTR (Homo sapiens, UniProt P02766); experiment: TTR levels in ATTR-CM patients on tafamidis 20 mg QD (Fx1B-201), immunoturbidimetric assays; format: in vivo; settings: wtATTR-CM patients
Procedure: (§1) We believe these levels were measured using immunoturbidimetric assays performed by Genzyme Analytic Services.

[3] = biological target: TTR (Homo sapiens, UniProt P02766, V142I); experiment: as above; format: in vivo; settings: V1221 mATTR-CM patients
Procedure: as §1

[4] = Tafamidis exposure in vitreous fluid / across blood-brain barrier after oral dosing; format: in vivo, human; settings: long-term
Text: Multiple publications have reported reduced serum TTR levels, as measured by nephelometry or radial immunodiffusion (commercial kits readily available), in familial amyloid polyneuropathy patients with vitreous amyloidosis. “Prealbumin. A major constituent of vitreous amyloid,” Ophthalmology. 1987 July; 94(7):792-8. […] “Transthyretin deposition in the eye in the era of effective therapy for hereditary ATTRV30M amyloidosis,” https://doi.org/10.1080/13506129.2018.1554563.

[5] = system: ATTR-CM patients; settings: cited from earlier work
[6] = system: TTR; experiment: TTR levels at tafamidis 20 vs 80 mg, Phase 3 ATTR-ACT trial; format: in vivo, human; settings: proprietary analysis
Procedure: We believe our discovery has relevance to the recently reported Phase 3 ATTR-ACT trial that readout positive mortality reduction with pooled tafamidis (20 mg and 80 mg QD) vs placebo. […] This is in line with one of Pfizer's expectations for the Phase 3 protocol (Maurer 2018, Phase 3 Final Protocol, 31 Jul. 2013. PF-06291826 Tafamidis Meglumine. B3461028) when looking at the plot of % TTR stabilization (y-axis) and molar ratio of tafamidis in FIG. 5: TTR levels (μM). We highlighted in red the wide ranges for pharmacodynamic effects related to 80 mg relative to 20 mg (in blue shade) to point out (1) potential for both dose-strengths to nearly overlap, (2) plotted data points were from Phase 1 data in healthy volunteers using liquid formulations of tafamidis (not capsule formulation given in Phase 3 ATTR-ACT trial), and (3) 80 mg PD expectations were calculated as a 4× multiple of 20 mg PD data, which could be important given PK variations may have not been optimized and could explain differences seen in Phase 3 ATTR-ACT clinical trial which tested 20 mg and 80 mg doses of tafamidis.

[7] = oral tafamidis (presumably 20 mg QD) long-term; cited from earlier work
[8] = system: ATTR patients with mutated TTR (V30M); settings: cited from earlier work
[9] = system: HMW TTR; settings: V30M ATTR patients; cited from earlier work
[10] = biological target: T1, TTR tetramer (Homo sapiens, UniProt P02766); settings: wtATTR-CM, off-label diflunisal; untreated 22 mg/dL (12-29); cited from earlier work
T1 construct: TTR tetramer levels were measured by immunoturbidimetric (IT) assays by Abbot Laboratories; from tissue; host or cells: blood samples of human wtATTR-CM patients (literature study, Circ Heart Fail 2018)

[11] = system: wtATTR-CM patients; settings: p<0.001; cited from earlier work
[12] = system: TTR-assisted beta-amyloid (Aβ) transport; settings: cited from earlier work

For `O=C(O)c1ccc2nc(-c3cc(Cl)cc(Cl)c3)oc2c1` [tafamidis], the “Average [native TTR] in the CSF” value [1] is listed as 265.8 nM, the “increase of TTR levels from baseline” value [2] is listed as roughly 17% and the “increase of TTR levels from baseline” value [3] is listed as 50-60%. For the same compound, the blood-brain barrier crossing [4] was “can cross the blood-brain barrier”, the “lower death-rates at month-30 compared to untreated” value ([5]; ATTR-CM patients, 20 mg tafamidis, long-term follow-up) was roughly 40% and the “rate at month-30 (77% vs 45% untreated)” value ([5]; ATTR-CM patients, 20 mg tafamidis) was 77%. The “reduction in death-rate at month-30 vs placebo” value ([5]; Phase 3 ATTR-ACT, pooled 20 mg QD and 80 mg QD, mATTR and wtATTR-CM) was roughly 30%, the “differences in TTR levels between the two dose-strengths” value [6] was roughly 1 mg/dL and the “drug levels in the vitreous fluid” value [7] was “detectable drug levels”. The ocular abnormalities ([8]; 20 mg/day, liver transplant 34%, supportive therapy 26%) was 22%, the “ocular abnormalities compared to untreated or liver transplantation” value ([8]; ATTR-PN, long-term treatment (>5 years), p=0.09 vs untreated, p=0.007 vs liver transplantation) was “lower ocular abnormalities” and the “HMW TTR levels” value [9] was “increase HMW TTR levels”.

In the case of `O=C(O)c1cc(-c2ccc(F)cc2F)ccc1O` [diflunisal], the “TTR levels after one year” value [10] is given as 30 mg/dL and the “one-year survival-rates vs untreated” value [11] is given as “improved one-year survival-rates”.

For `O=C(O)c1cc(-c2ccc(F)cc2F)cc(I)c1O` [iodo-diflunisal], the “TTR-assisted beta-amyloid (Aβ) transport” value [12] is listed as “enhanced”.
